Results reported in publication PMC5540946, “Stress-Driven Discovery of Novel Cryptic Antibiotics from a Marine Fungus Penicillium sp. BB1122” (Frontiers in Microbiology, 2017).
≈ marks a conversion by molar mass, not a printed value.

Tested on: K. pneumoniae [CMCC(B)46117]
Assay: Broth dilution antibacterial assay (MIC, MBC by subculture) against K. pneumoniae
Format: cell-based
Conditions: Klebsiella pneumoniae
Procedure: (§1) The conventional broth dilution assay was used to evaluate the antibacterial activities. Three clinical pathogens namely MRSA, P. aeruginosa [CMCC(B)10104], and K. pneumoniae [CMCC(B)46117] were cultured and left overnight to grow. Each pathogenic culture was then diluted in 0.9% saline to an inoculum density of 5 × 10^5 cfu by comparison with a McFarland standard. Tetracycline was dissolved in Mueller–Hinton broth with a starting concentration of 512 μg/mL and was used as positive control whereas methanol was used as negative control. A total of 125 μL of MHB was distributed into the 96-well plates. A total of 125 μL of the different samples were dispensed into well 1 and serially diluted across the plate. Ultimately, addition of 125 μL of the bacterial inoculum was performed and the plates were incubated at 37°C for 18 h. The bacteriostatic abilities of the compounds were noted as MICs which were done in triplicate. Five milligrams per milliliter of methanolic solution of 3-[4,5-dimethylthiazol-2-yl]-2,5-diphenyltetrazolium bromide (MTT; Lancaster) was used to detect bacterial growth by a change in color from yellow to blue ([Appendino et al., 2008]).
(§2) Ten microliters of broth with no visible growth were taken from the wells and sub-cultured on nutrient agar plates. The negative control consisted of nutrient agar and the inoculum which was then compared with the number of colonies on the agar. The bactericidal abilities of the compounds were noted as MBCs which was equal to the lowest concentration of the samples which killed 99.9% of the original inoculum ([Clinical and Laboratory Standards Institute, 2014]).

| Compound | MIC [µg/mL] |
| --- | --- |
| COc1cc(=O)oc(/C=C/C=C/C=C/[C@@]2(C)O[C@]3(C)[C@@H](O)[C@@](C)(O[C@@H]3C)[C@@H]2O)c1C [Compound 3, epicitreoviridinol] | > 128 |
| COc1cc(=O)oc(/C=C/C=C/C=C/[C@@]2(C)O[C@@]3(C)[C@H](O)[C@](C)(O[C@H]3C)[C@@H]2O)c1C [Compound 4, epiisocitreoviridinol] | > 128 |
| COc1cc(=O)oc(/C=C/C=C/C=C/[C@@]2(C)O[C@]3(C)[C@@H](O)[C@@](C)(O[C@@H]3C)[C@H]2O)c1C [Compound 6, citreoviridinol] | > 128 |

Same assay, conditions: Klebsiella pneumoniae; broth dilution, 37°C, 18 h, triplicate

| Compound | MIC [µg/mL] |
| --- | --- |
| COc1cc(=O)oc(C=CC=CC=CC(C)=CC2(C)OC(C)C(C)(O)C2O)c1C (stereo not drawn) [Compound 1, Neocitreoviridin] | 64 (≈ 159 µM) |

Same assay, conditions: Klebsiella pneumoniae; lowest concentration killing 99.9% of original inoculum; read-out: MBC

| Compound | MBC [µg/mL] |
| --- | --- |
| COc1cc(=O)oc(C=CC=CC=CC(C)=CC2(C)OC(C)C(C)(O)C2O)c1C (stereo not drawn) [Compound 1, Neocitreoviridin] | 128 (≈ 318 µM) |

Same assay, conditions: Klebsiella pneumoniae; read-out: MBC

| Compound | MBC [µg/mL] |
| --- | --- |
| COc1cc(=O)oc(/C=C/C=C/C=C/[C@@]2(C)O[C@]3(C)[C@@H](O)[C@@](C)(O[C@@H]3C)[C@@H]2O)c1C [Compound 3, epicitreoviridinol] | > 128 |
| COc1cc(=O)oc(/C=C/C=C/C=C/[C@@]2(C)O[C@@]3(C)[C@H](O)[C@](C)(O[C@H]3C)[C@@H]2O)c1C [Compound 4, epiisocitreoviridinol] | > 128 |
| COc1cc(=O)oc(/C=C/C=C/C=C/[C@@]2(C)O[C@]3(C)[C@@H](O)[C@@](C)(O[C@@H]3C)[C@H]2O)c1C [Compound 6, citreoviridinol] | > 128 |

Tested on: methicillin resistant Staphylococcus aureus (MRSA)
Assay: Broth dilution antibacterial assay (MIC, MBC by subculture) against MRSA
Format: cell-based
Conditions: Staphylococcus aureus
Procedure: as §1, §2

| Compound | MBC [µg/mL] |
| --- | --- |
| COc1cc(=O)oc(C=CC=CC=CC(C)=CC2(C)OC(C)C(C)(O)C2O)c1C (stereo not drawn) [Compound 1, Neocitreoviridin] | 128 (≈ 318 µM) |
| COc1cc(=O)oc(/C=C/C=C/C=C/[C@@]2(C)O[C@]3(C)[C@@H](O)[C@@](C)(O[C@@H]3C)[C@@H]2O)c1C [Compound 3, epicitreoviridinol] | 2 (≈ 4.78 µM) |
| COc1cc(=O)oc(/C=C/C=C/C=C/[C@@]2(C)O[C@@]3(C)[C@H](O)[C@](C)(O[C@H]3C)[C@@H]2O)c1C [Compound 4, epiisocitreoviridinol] | 128 (≈ 306 µM) |
| COc1cc(=O)oc(/C=C/C=C/C=C/[C@@]2(C)O[C@]3(C)[C@@H](O)[C@@](C)(O[C@@H]3C)[C@H]2O)c1C [Compound 6, citreoviridinol] | 8 (≈ 19.1 µM) |

Same assay, conditions: Staphylococcus aureus, 18 h

| Compound | MIC [µg/mL] |
| --- | --- |
| COc1cc(=O)oc(C=CC=CC=CC(C)=CC2(C)OC(C)C(C)(O)C2O)c1C (stereo not drawn) [Compound 1, Neocitreoviridin] | 64 (≈ 159 µM) |
| COc1cc(=O)oc(/C=C/C=C/C=C/[C@@]2(C)O[C@]3(C)[C@@H](O)[C@@](C)(O[C@@H]3C)[C@@H]2O)c1C [Compound 3, epicitreoviridinol] | 1 (≈ 2.39 µM) |
| COc1cc(=O)oc(/C=C/C=C/C=C/[C@@]2(C)O[C@@]3(C)[C@H](O)[C@](C)(O[C@H]3C)[C@@H]2O)c1C [Compound 4, epiisocitreoviridinol] | 64 (≈ 153 µM) |
| COc1cc(=O)oc(/C=C/C=C/C=C/[C@@]2(C)O[C@]3(C)[C@@H](O)[C@@](C)(O[C@@H]3C)[C@H]2O)c1C [Compound 6, citreoviridinol] | 4 (≈ 9.56 µM) |

Tested on: P. aeruginosa [CMCC(B)10104]
Assay: Broth dilution antibacterial assay (MIC, MBC by subculture) against P. aeruginosa
Format: cell-based
Conditions: Pseudomonas aeruginosa, 18 h, broth dilution, 37°C, 18 h, triplicate, read-out: MIC
Procedure: as §1, §2

| Compound | MIC [µg/mL] |
| --- | --- |
| COc1cc(=O)oc(C=CC=CC=CC(C)=CC2(C)OC(C)C(C)(O)C2O)c1C (stereo not drawn) [Compound 1, Neocitreoviridin] | 4 (≈ 9.94 µM) |
| COc1cc(=O)oc(/C=C/C=C/C=C/[C@@]2(C)O[C@]3(C)[C@@H](O)[C@@](C)(O[C@@H]3C)[C@@H]2O)c1C [Compound 3, epicitreoviridinol] | 64 (≈ 153 µM) |
| COc1cc(=O)oc(/C=C/C=C/C=C/[C@@]2(C)O[C@@]3(C)[C@H](O)[C@](C)(O[C@H]3C)[C@@H]2O)c1C [Compound 4, epiisocitreoviridinol] | 64 (≈ 153 µM) |
| COc1cc(=O)oc(/C=C/C=C/C=C/[C@@]2(C)O[C@]3(C)[C@@H](O)[C@@](C)(O[C@@H]3C)[C@H]2O)c1C [Compound 6, citreoviridinol] | 64 (≈ 153 µM) |

Same assay, conditions: Pseudomonas aeruginosa, lowest concentration killing 99.9% of original inoculum, read-out: MBC

| Compound | MBC [µg/mL] |
| --- | --- |
| COc1cc(=O)oc(C=CC=CC=CC(C)=CC2(C)OC(C)C(C)(O)C2O)c1C (stereo not drawn) [Compound 1, Neocitreoviridin] | 8 (≈ 19.9 µM) |
| COc1cc(=O)oc(/C=C/C=C/C=C/[C@@]2(C)O[C@]3(C)[C@@H](O)[C@@](C)(O[C@@H]3C)[C@@H]2O)c1C [Compound 3, epicitreoviridinol] | 128 (≈ 306 µM) |
| COc1cc(=O)oc(/C=C/C=C/C=C/[C@@]2(C)O[C@@]3(C)[C@H](O)[C@](C)(O[C@H]3C)[C@@H]2O)c1C [Compound 4, epiisocitreoviridinol] | 128 (≈ 306 µM) |
| COc1cc(=O)oc(/C=C/C=C/C=C/[C@@]2(C)O[C@]3(C)[C@@H](O)[C@@](C)(O[C@@H]3C)[C@H]2O)c1C [Compound 6, citreoviridinol] | 128 (≈ 306 µM) |
